These results are taken from patent US20220331274A1, “METHODS OF TREATING CANCER” (Inspirna, Inc., priority 2019, published 2022).

The conditions of series [1]: cited from earlier work.
Series [2] has as its system mouse melanoma. Briefly: syngeneic mouse melanoma model. It counts as in vivo.
In series [3] the test system is BRAF wild-type human melanoma xenograft. Description: BRAF wild-type human melanoma xenograft model. The class given is in vivo. The following applies: 100 mg/kg in combination with dacarbazine. On the technique in general: A xenograft is tissue or cells of one species grown in another, often human tumour cells in immunodeficient mice.
The conditions of series [4]: cited from earlier work. The source holds these as a separate data set.
The conditions of series [5]: cited from earlier work. The source holds these as a separate data set.
Series [6] relates to Xenograft A549. Description: Example 2: Xenograft A549 mice, tumor volume. It counts as in vivo. The following applies: Group 02: 2 mg/kg cisplatin, corn oil. Here is the method: Protocol: Five groups of Xenograft A549 mice were treated and tumor volume tracked for twenty-two days. Group 01 was administered 0.9% Saline, 0 mg/kg cisplatin, Corn Oil, and 0 mg/kg 2-[3-[(3R)-3-[[2-chloro-3-(trifluoromethyl)phenyl]methyl-(2,2-diphenylethyl)amino]butoxy]phenyl]acetic acid; Group 02 was administered 2 mg/kg Cisplatin, Corn Oil, and 0 mg/kg 2-[3-[(3R)-3-[[2-chloro-3-(trifluoromethyl)phenyl]methyl-(2,2-diphenylethyl)amino]butoxy]phenyl]acetic acid; Group 03 was administered 0.9% Saline, 0 mg/kg cisplatin, and 50 mg/kg 2-[3-[(3R)-3-[[2-chloro-3-(trifluoromethyl)phenyl]methyl-(2,2-diphenylethyl)amino]butoxy]phenyl]acetic acid; Group 04 was administered 2 mg/kg cisplatin and 50 mg/kg 2-[3-[(3R)-3-[[2-chloro-3-(trifluoromethyl)phenyl]methyl-(2,2-diphenylethyl)amino]butoxy]phenyl]acetic acid twice per day daily for the entire treatment period; and Group 05 was administered 2 mg/kg cisplatin and 50 mg/kg 2-[3-[(3R)-3-[[2-chloro-3-(trifluoromethyl)phenyl]methyl-(2,2-diphenylethyl)amino]butoxy]phenyl]acetic acid twice per day for five continuous days followed by two days without for the entire treatment period.

For “ipilimumab: recombinant human IgG1 kappa monoclonal antibody that binds to CTLA-4”, the immune-mediated hepatitis result in series [1] (in vivo) is reported as “immune-mediated hepatitis has been observed”.

In the case of `CC(=O)O[C@@]12CO[C@@H]1C[C@H](O)[C@@]1(C)C(=O)[C@H](O)C3=C(C)[C@@H](OC(=O)[C@H](O)[C@@H](NC(=O)OC(C)(C)C)c4ccccc4)C[C@@](O)([C@@H](OC(=O)c4ccccc4)[C@H]21)C3(C)C` [docetaxel, (2R,3S)—N-carboxy-3-phenylisoserine,N-tert-butyl ester, 13-ester with 5b-20-epoxy-1,2a,4,7b, 10b, 13a-hexahydroxytax-11-en-9-one 4-acetate 2-benzoate, trihydrate], the hepatotoxicity result in series [1] (treatment with the partner drug) was “hepatotoxicity has been observed”.

As to “nivolumab: fully human immunoglobulin (Ig) G4 monoclonal antibody directed against programmed death-1 (PD-1)”, in series [1] (in vivo), the “hyperlipidemia in treated subjects” value is on record as “has also been reported” and the immune-mediated hepatitis result was “immune-mediated hepatitis has been observed”.

Consider `Cl.O=C(O)Cc1cccc(OCCCN(Cc2cccc(C(F)(F)F)c2Cl)CC(c2ccccc2)c2ccccc2)c1` [GW3965, 3-[3-[N-(2-Chloro-3-trifluoromethylbenzyl)-(2,2-diphenylethyl)amino]propyloxy]phenylacetic acid hydrochloride, reference compound], for which the tumor suppressive efficacy entry in series [2] (100 mg/kg in combination with anti-CTLA-4) is “additive tumor suppressive efficacy”. Moreover, the anti-tumor efficacy entry in series [2] (100 mg/kg in combination with dacarbazine, syngeneic melanoma animal model) was “Additive anti-tumor efficacy”; in series [3] it was “Additive anti-tumor efficacy”.

As to `N.N.O=C([O-])C1(C(=O)[O-])CCC1.[Pt+2]` [Carboplatin, platinum, diammine[1,1-cyclobutanedicarboxylato(2-)-O,O′]-, (SP-4-2)], the “pH of a 1% solution” value in series [4] is 5-7. For the same molecule, in series [5] (ethanol, acetone, dimethylacetamide), the “solubility in ethanol, acetone, and dimethylacetamide” value is “virtually insoluble”. In addition, in series [5] (water), the solubility in water entry was “approximately 14 mg/mL”.

Regarding `N.N.[Cl][Pt][Cl]` [cisplatin, reference compound], the mean tumor volume in series [6] (day 0, in mm³ (unit assumed)) was determined as 86.05; in series [6] (day 3), 116.20; in series [6] (day 6) it was 196.48; in series [6] (day 9, in mm³ (unit assumed)), 276.41; in series [6] (day 12, in mm³ (unit assumed)), 450.58; in series [6] (day 15, in mm³ (unit assumed)), 598.84. The figures for the mean tumor volume in series [6] (day 19) and in series [6] (day 22) were 1239.53 and 1521.86, respectively.
